Measured values: patent US9547009B2, “Benzocyclooctyne compounds and uses thereof” (Academia Sinica, priority 2012, dated 2017)
Blank lines part the entries; values can stand above or below the compound they belong to.

Key:
[1] = SPAAC kinetics with N-azidoacetylmannosamine monitored by 1H-NMR; conditions: CD3OD/D2O (5:1, v/v), equimolar 20 mM, 25° C.
Procedure: (§1) Experiment II: Compound 1 and N-azidoacetylmannosamine were predissolved in CD3OD/D2O (5:1, v/v), and then mixed at equimolar concentration of 20 mM. The reaction was monitored by ^1H-NMR analysis over a period of 1 h. The concentration of each component was determined, based on the concentration of initial compound 1, by integration at multiple chemical shifts in the ^1H-NMR spectrum. By plotting 1/[1](M^−1) vs. time (sec), a second order rate constant in unit of M^−1s^−1 was determined using linear regression analysis. This procedure was repeated 3 times with a concentrated of 20 mM to afford a rate constant of 0.010 M^−1s^−1 at 25° C. (FIG. 11).

[2] = Photophysical properties of Compound 1 and its benzyl azide triazole regioisomers 3a/3b; format: physicochemical; conditions: for fluorescence emission λmax: upon irradiation; for extinction coefficient relative to Compound 1: at λmax 330 nm
From the text: In one embodiment, Compound 1 reacted with benzyl azide in ethanol/water (1:1) in the absence of copper(I) catalyst to afford the cycloaddition product as a mixture of two triazole reigoisomers 3a and 3b. These two trizaole isomers were separated, and their photophysical properties were investigated, respectively. […] The quantum yields of triazole compounds 3a (Φf=0.23) and 3b (Φf=0.22) were 20-fold higher than Compound 1 (Φf=0.011).

[3] = SPAAC kinetics with benzyl azide monitored by 1H-NMR; conditions: CD3CN, 25° C.
Procedure: The cycloaddition of compound 1 with benzyl azide was a second-order reaction. […] The second-order rate constant (k) was determined to be 0.015 M^−1s^−1 at 25° C. […] (Agard, et al., J. Am. Chem. Soc. 2004, 126, 15046; Ning, et al., Angew. Chem. Int. Ed. 2008, 47, 2253).
as §1, with “I:” for “II:”, “benzyl azide” for “N-azidoacetylmannosamine”, “CD3CN,” for “CD3OD/D2O (5:1, v/v),”, “0.012” for “0.010”, “4B).” for “11).”

CL1-5 cells = experiment: Fluorescence labeling of azido-glycoconjugates in live cells (time-lapse and confocal microscopy); format: cell-based
Procedure: To observe the fluorescence labeled azido-glycoconjugates in cells, CL1-5 cells (a lung cancer cell line) were seeded on chamber slide (2.5×10^4 cells/0.5 mL per wells) and incubated in culture medium (RPMI-1640 supplemented with 10% FBS, 100 U/mL penicillin, 100 μg/mL streptomycin, 1 mM L-glutamine and 1 mM sodium pyruvate) with either 200 μM control sugar (peracetylated N-acetylmannosamine, Ac4ManNAc) or azido-sugar (peracetylated azido-N-acetylmannosamine, Ac4ManNAz) for 3 days.
For Time-lapse imaging of live cells, experiments were carried out using a confocal microscope (TCS-SP5-MP-SMD, Leica) equipped with an incubator to keep the cells in culture conditions. Prewashed cells were incubated with 100 μM compound 1 in PBS buffer with 10% DMSO and images of cell were acquired at 450 nm emission and in 5-min intervals.
For comparing the localization of azido-glycans, probe-labeled cells were washed with PBS, fixed with 3% paraformaldehyde in PBS at room temperature for 20 min, permeablized with 0.2% Triton X-100 in PBS at room temperature for 20 min, and blocked with 3% bovine serum albumin in PBS at room temperature for 30 min. Cells were stained with fluorescein conjugated WGA lectin for Golgi, and propidium iodide (PI) for nucleus (FIG. 12).
Performance of Compound 1 in live cell imaging was investigated. Highly invasive lung cancer cells, CL1-5, were cultured in the presence of peracetylated azido-N-acetylmannosamine (Ac4ManNAz, 200 μM) for 3 days to metabolically produce the azido-sialic acid expressed cells. As a negative control, CL1-5 cells were grown in the presence of peracetylated N-acetylmannosamine (Ac4ManNAc, 200 μM). A time course experiment was conducted by treating 100 μM of Compound 1 (once) and conducted by exposing the cells at 5-min intervals under no-wash and no-fixation conditions (FIG. 8 and FIG. 12). […] Furthermore, the localization of azido-containing glycoconjugates in living cells was visualized by confocal microscopy. The cells labeled by Compound 1 were subsequently stained with fluorescein-conjugated WGA lectin (a Golgi marker) and propidium iodide (PI, a nucleus marker).

[4] = Time course of ligation with ManNAz by fluorescence spectroscopy; conditions: emission 435 nm, excitation 330 nm; 10% DMSO in PBS, 37° C.
Procedure: To probe the SPAAC reaction under the conditions that would be more typical for biomolecule labeling, the fluorescence response and time course for the reaction of Compound 1 with N-azidoacetylmannosamine (ManNAz) were investigated.
A solution of Compound 1 ([…]) and N-azidoacetylmannosamine (15 μmol) in a mixture of 10% DMSO in PBS buffer (2.5 mL) was incubated at 37° C. The fluorescence emission intensity at 435 nm upon excitation at 330 nm was monitored in 5 min intervals. For each point the fluorescence intensity was measured over a period of 5 sec and averaged over a total of 3 points. In a control experiment the same conditions were used except that N-acetylmannosamine (15 μmol) was added to the solution.

[5] = Absorption/fluorescence spectroscopy and quantum yield under simulated physiological conditions (10% DMSO in PBS); format: physicochemical; conditions: excitation at 330 nm, PBS buffer containing 10% DMSO, pH 7.4, 37° C.; for quantum yield Φf: quinine sulfate standard
Procedure: All spectroscopic measurements of Compound 1 and the triazole products 1-A and 1-B were performed in a mixture of 10% DMSO in PBS buffer (FIG. 11). UV-vis spectra and fluorescence spectra were recorded on a Molecular Devices Spectramax M5 spectrometer. For each experiment, the absorbance spectra were measured within an absorbance range of 0.07 to 0.7 (l=[…]). Quantum yields were determined from the slope of the integrated fluorescence emission between 360 and 550 nm (excitation at 330 nm) versus absorbance using quinine sulfate (Φf=0.54±0.0 3)[^S3] as fluorescence standard. The quantum yield was calculated as an average of 4 points according to the following equation: Φsample=Φstandard(Astandard/Asample)(Fsample/Fstandard)(nsample/nstandard)^2 where “Φ” is the quantum yield, “A” is the absorbance at the excitation frequency, “F” is the area under the emission curve, and “n” is the refractive index of the solvent.
Formation of triazoles 1-A and 1-B were accompanied by a significant increase in fluorescence intensity with a large Stokes shift into a standard range for coumarin emission (FIG. 8a).

[6] = Photophysical properties of alkynyl coumarin-indolium compound C and its CuAAC triazole product 18; format: physicochemical; conditions: 18: in aqueous solution; for extinction coefficient ε: at λmax 500 nm

Compound: O=c1ccc2cc3c(cc2o1)C#CCCCC3 [Compound 1, 10,11-Dehydro-6,7,8,9-tetrahydro-cycloocta[g]chromen-2-one]
second order rate constant [1]: 0.010 M⁻¹ s⁻¹ | absorption band λmax [2]: 330 nm | quantum yield Φf [2]: 0.011 | fluorescence emission λmax [2]: 400 nm | second order rate constant ([3]; benzyl azide, equimolar 20 mM, repeated 3 times): 0.012 M⁻¹ s⁻¹ | second-order rate constant (k) ([3]; cycloaddition with benzyl azide, 19 mM): 0.015 M⁻¹ s⁻¹ | fluorescence of Ac4ManNAz treated cells (CL1-5 cells; 100 μM probe, 5-min intervals, no-wash, no-fixation): time-dependent increase of fluorescence intensity | fluorescence of control cells (background labeling) (CL1-5 cells; 100 μM probe, CL1-5 cells grown with 200 μM Ac4ManNAc): almost no fluorescence staining | time until cell labeling complete (CL1-5 cells; 100 μM probe, CL1-5 cells pre-treated with 200 μM Ac4ManNAz for 3 days, no-wash, no-fixation): 1.5 h | localization of probe-labeled sialylated glycans (CL1-5 cells; confocal microscopy, co-staining with fluorescein-WGA lectin (Golgi) and propidium iodide (nucleus)): partially co-localized with Golgi apparatus staining, but not with nucleus staining | time until fluorescence intensity reached a plateau [4]: less than 1 h | fluorescence emission band [5]: 405 nm | quantum yield Φf [5]: 0.011

Compound: O=c1ccc2cc3c(cc2o1)-c1nnn(Cc2ccccc2)c1CCCC3 [Compound 1-A, 10-Benzyl-6,7,8,9-tetrahydro-cyclooctatriazolo[5,4-g]chromen-2 (2H)-one]
fluorescence emission band [5]: 435 nm | quantum yield Φf [5]: 0.23

Compound: O=C(Cn1nnc2c1CCCCc1cc3ccc(=O)oc3cc1-2)NC1C(O)OC(CO)[C@@H](O)C1O (stereo partly drawn) [Compound 1-B, N-[2-(11-Oxo-4,6,7,11-tetrahydrochromeno[7′,6′:3,4]cycloocta[1,2-d][1,2,3]triazol-3 (5H)-yl)]acetamido-2-deoxy-α,β-D-mannopyranose]
fluorescence emission band [5]: 435 nm | quantum yield Φf [5]: 0.21

Compound: CC1(C)C(/C=C/c2cc3ccc(-c4cn(Cc5ccccc5)nn4)cc3oc2=O)=[N+](CCCCS(=O)(=O)[O-])c2ccccc21 [Compound 18]
absorption λmax [6]: 500 nm | fluorescence quantum yield Φf [6]: 0.56 | fluorescence λmax [6]: 520 nm | extinction coefficient ε [6]: 32,000 M^−1 cm^−1

Compound: C#Cc1ccc2cc(/C=C/C3=[N+](CCCCS(=O)(=O)[O-])c4ccccc4C3(C)C)c(=O)oc2c1 [Compound C, (E)-7-ethynyl-3-[N-(4-sulfonatobutyl)-3,3-dimethyl-3H-indolium-2-yl]ethenyl-2H-chromen-2-one]
absorption λmax [6]: 500 nm | fluorescence quantum yield Φf [6]: 0.017 | fluorescence λmax [6]: 515 nm | extinction coefficient ε [6]: 8,600 M^−1 cm^−1

Other lines, results leading:

absorption band λmax [2]: 330 nm | quantum yield relative to Compound 1 [2]: 20 fold | quantum yield Φf [2]: 0.23 | extinction coefficient relative to Compound 1 [2]: ~2.5 fold | fluorescence emission λmax [2]: 400 nm
Compound: O=c1ccc2cc3c(cc2o1)-c1nnn(Cc2ccccc2)c1CCCC3 [Compound 3a]

absorption band λmax [2]: 330 nm | quantum yield relative to Compound 1 [2]: 20 fold | quantum yield Φf [2]: 0.22 | extinction coefficient relative to Compound 1 [2]: ~2.5 fold | fluorescence emission λmax [2]: 400 nm
Compound: O=c1ccc2cc3c(cc2o1)-c1c(nnn1Cc1ccccc1)CCCC3 [Compound 3b]
